This is an account of results in PMC12057341, “In vitro pharmacokinetic/pharmacodynamic modeling of the effect of mucin on polymyxin B activity against Acinetobacter baumannii” (Antimicrobial Agents and Chemotherapy, 2025).

Where a SMILES comes first, the peptide text is derived from it. Bridges are numbered along the chain shown (N, C = ends). [ ]: non-standard residue; d: D form. The star is where a group is joined. X1 = CC[C@H](C)CCCCC(=O)*; Dab = NCC[C@H](N)C(=O)O

Series [1] has as its system Acinetobacter baumannii AB122-D12. In words: PMB MIC in CAMHB with or without 1% mucin, AB122-D12. Format: cell-based. The method, then: Two clinical MDR strains of A. baumannii, isolated from a patient before (AB121-D0) and 12 days after treatment with colistin (AB122-D12), were used during this study ([32]). AB122-D12 carries a 10 amino acid insertion into the pmrB gene, known to confer PMB resistance.
PMB MICs of both A. baumannii strains were determined in commercial CAMHB (BioMérieux, Marcy-l’Etoile, France) according to the European Committee on Antimicrobial Susceptibility Testing and Clinical and Laboratory Standards Institute (CLSI) recommendations ([33], [34]). PMB MICs of the two A. baumannii isolates were also determined at least in duplicate in CAMHB supplemented with 1% of mucin.

For series [2], the system named is Acinetobacter baumannii AB121-D0. Kind of series: Time-kill experiments and PK/PD modeling, AB121-D0. Format: cell-based. The note with it: for Unbound PMB concentrations at which regrowth was observed in TK: CAMHB + 1% mucin. The method, then: Bacteria were cultured overnight under shaking (150–170 rpm) in CAMHB at 35°C. The bacterial suspension was then diluted to 1/50 and incubated at 35°C under shaking until an optical density of 0.3 (corresponding to 1.10^8 CFU/ml of bacteria in the exponential growth phase) was achieved. This bacterial suspension was then diluted in order to obtain a starting inoculum at 1.10^6 CFU/mL. TK experiments were performed in CAMHB in the absence and presence of 1% mucin. PMB concentrations varied from 0.5 mg/L to 128 mg/L for AB121-D0 and 8 mg/L to 512 mg/L for AB122-D12. Drug-free CAMHB was used as bacterial growth control for each strain. Tubes were incubated at 35°C under shaking (150–170 rpm), and aliquots were sampled over time at T0h, T1h, T3h, T6h, T10h, T24h, and T30h. Samples were serially diluted in NaCl 0.9% and plated onto Mueller-Hinton agar supplemented with 1% activated charcoal (to prevent PMB carry-over effect). Bacteria were counted after overnight incubation at 35°C. The limit of quantification was fixed based on CLSI guidelines ([38]) and was equal to 400 CFU/ml (i.e. 2.6 log10 CFU/mL). Experiments were conducted in triplicate for both strains.
(§1) Bacterial counts obtained from TK experiments without mucin were first modeled using NONMEM 7.4 (ICON plc, Dublin, Ireland) with the Laplacian algorithm and the M3 method for handling observations below the limit of quantification ([39]). PMB was assumed to be stable over the course of the experiment as previously shown ([40]). A previously described model with hetero-resistance ([41]), that is, two bacterial subpopulations, one susceptible to PMB (S) and one resistant (R), was used to describe the time course of bacterial counts for the two A. baumannii strains (Fig. 1). Different functions were tested to characterize the PMB killing effect (see supplemental material for model building).
Then, TK data in the presence of mucin were included in the data set and PMB total concentrations were corrected for mucin binding using equation 1, with unbound PMB concentrations driving the antibacterial effect. Random variability between TK experiments (one experiment corresponding to a replicate of a tested concentration) was included to account for the uncertainty associated with each parameter of equation 1 and thus with the estimation of unbound PMB concentration in TK, such as:
An impact of mucin on PD model parameters was tested on top of PMB binding to mucin with the following equation:
(4) Pj=θj,1×(1−Mucin)+θj,2×Mucin,
where Pj was the jth parameter of the PD model, Mucin was a categorical variable either equal to 0 or 1 depending on its absence or presence in TK experiments respectively, θj,1 and θj,2 corresponded to the Pj value in the absence and in the presence of mucin, respectively. […]

For series [3] the following is noted: assumed for TK modeling, as previously shown; cited from earlier work.
Description: as §1, with “w ...” for “were tested to characterize the PMB killing effect (see supplemental material for model building).”

Turning to `CC[C@H](C)CCCCC(=O)N[C@@H](CCN)C(=O)N[C@H](C(=O)N[C@@H](CCN)C(=O)N[C@H]1CCNC(=O)[C@H]([C@@H](C)O)NC(=O)[C@H](CCN)NC(=O)[C@H](CCN)NC(=O)[C@H](CC(C)C)NC(=O)[C@@H](Cc2ccccc2)NC(=O)[C@H](CCN)NC1=O)[C@@H](C)O` [PMB, polymyxin B] (X1-[Dab]T[Dab][Dab][Dab][dF]L[Dab][Dab]T; lactam 4-C), in series [1] (CAMHB + 1% mucin, unbound MIC = MIC x fu), the “MICu (corrected by fu)” value was determined as 628 mg/L. Moreover, the “MICu ratio in the presence and absence of mucin” value in series [1] (MIC with 1% mucin corrected by fu) came to 20. Moreover, the “Fold increase of MIC in the presence of 1% mucin compared to CAMHB” value in series [1] (total concentrations) was 32 fold. Besides, the “Fold increase of EmaxR in the presence of mucin” value in series [2] (1% mucin vs no mucin) was found to be 1.4 fold. Further, the “Unbound PMB concentrations at which regrowth was observed in TK” value in series [2] (one-third of replicates) is on record as no more than 13 mg/L; in series [2] (two-thirds of replicates), no more than 0.5 mg/L. In addition, in series [2] (CAMHB without mucin, 30 h), the “PMB concentrations up to which regrowth was observed in TK after initial CFU decay” value was “up to 8 mg/L”. The “Stability over the course of the experiment” value in series [3] is “stable”.
